In ChEMBL document CHEMBL1201862, “PubChem BioAssay data set” (2004):
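Protocol summary: plate cells (96-well), add compound at 5 concentrations, incubate 48 h, interpolate endpoints linearly. At the GI50, growth is halved.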 Activity calls are given as the source filed them. Rule as the data show it: active = GI50 up to about 1.1 µM and inactive = higher.

Experiments:
Test in all cases: growth of human tumour cells (NCI), 48 h
[1] = tested on: 786-0
[2] = tested on: A549
[3] = tested on: CCRF-CEM
[4] = tested on: DU-145
[5] = tested on: HCT-15
[6] = tested on: HL-60
[7] = tested on: K562
[8] = tested on: LOX IMVI
[9] = tested on: M14
[10] = tested on: MDA-MB-435
[11] = tested on: NCI-H460
[12] = tested on: OVCAR-8
[13] = tested on: RXF 393
[14] = tested on: SF-268
[15] = tested on: SF-295
[16] = tested on: SK-MEL-5
[17] = tested on: SK-OV-3
[18] = tested on: TK-10
[19] = tested on: UACC-257
[20] = tested on: UACC-62

## N=C(N)N/N=C/c1c(-c2ccccc2)nc2ccn3c(/C=N/N=C(N)N)c(-c4ccccc4)nc3n12
[1]
  GI50: 82.6 µM (inactive)
[2]
  GI50: 51.2 µM (inactive)
[3]
  GI50: > 100 µM (inactive)
[4]
  GI50: 58.1 µM (inactive)
[5]
  GI50: 38.4 µM
[6]
  GI50: 72.6 µM (inactive)
[7]
  GI50: > 100 µM (inactive)
[8]
  GI50: 48.8 µM (inactive)
[9]
  GI50: 49.3 µM (inactive)
[10]
  GI50: 61.2 µM (inactive)
[11]
  GI50: 32.2 µM (inactive)
[12]
  GI50: 26.5 µM (inactive)
[13]
  GI50: > 100 µM (inactive)
[14]
  GI50: > 100 µM (inactive)
[15]
  GI50: 55.3 µM (inactive)
[16]
  GI50: 48.4 µM (inactive)
[17]
  GI50: 37.7 µM (inactive)
[18]
  GI50: 59 µM (inactive)
[19]
  GI50: 23.5 µM (inactive)
[20]
  GI50: 38.9 µM (inactive)

## CC(C)(C)OC(=O)NC(Cc1ccc(OCc2ccccc2)cn1)C(=O)N1CCCCC1 (stereo not given)
[1]
  GI50: 56 µM (inactive)
[2]
  GI50: 49.7 µM (inactive)
[3]
  GI50: 31.8 µM (inactive)
[4]
  GI50: 33 µM (inactive)
[5]
  GI50: 37.6 µM
[6]
  GI50: 27 µM (inactive)
[7]
  GI50: 31.7 µM (inactive)
[8]
  GI50: 25.4 µM (inactive)
[9]
  GI50: 37.8 µM (inactive)
[10]
  GI50: 19.4 µM (inactive)
[11]
  GI50: 33.7 µM (inactive)
[12]
  GI50: 35.6 µM (inactive)
[13]
  GI50: 19.5 µM (inactive)
[14]
  GI50: 65.6 µM (inactive)
[15]
  GI50: 30.5 µM (inactive)
[16]
  GI50: 16.4 µM (inactive)
[17]
  GI50: 58.6 µM (inactive)
[18]
  GI50: 37.1 µM (inactive)
[19]
  GI50: 19.6 µM (inactive)
[20]
  GI50: 29.1 µM (inactive)

## Cc1ccc(N)c(S)c1
[1]
  GI50: 16.1 µM (inactive)
[2]
  GI50: 21.5 µM (inactive)
[3]
  GI50: 18 µM (inactive)
[4]
  GI50: 15.7 µM (inactive)
[5]
  GI50: 16.7 µM
[6]
  GI50: 25.2 µM (inactive)
[7]
  GI50: 28.6 µM (inactive)
[8]
  GI50: 16.4 µM (inactive)
[9]
  GI50: 16.9 µM (inactive)
[10]
  GI50: 19 µM (inactive)
[11]
  GI50: 22 µM (inactive)
[12]
  GI50: 17.1 µM (inactive)
[13]
  GI50: 16.8 µM (inactive)
[14]
  GI50: 20.8 µM (inactive)
[15]
  GI50: 18 µM (inactive)
[16]
  GI50: 16.5 µM (inactive)
[17]
  GI50: 27.9 µM (inactive)
[18]
  GI50: 21.8 µM (inactive)
[19]
  GI50: 23.3 µM (inactive)
[20]
  GI50: 17.6 µM (inactive)

## COP(=O)(OC)C(C)(C)NC(=O)NC(F)(F)F
[1]
  GI50: > 100 µM (inactive)
[2]
  GI50: > 100 µM (inactive)
[3]
  GI50: > 100 µM (inactive)
[4]
  GI50: > 100 µM (inactive)
[5]
  GI50: > 100 µM
[6]
  GI50: > 100 µM (inactive)
[7]
  GI50: > 100 µM (inactive)
[8]
  GI50: > 100 µM (inactive)
[9]
  GI50: 0.0401 µM (active)
[10]
  GI50: > 100 µM (inactive)
[11]
  GI50: > 100 µM (inactive)
[12]
  GI50: > 100 µM (inactive)
[13]
  GI50: > 100 µM (inactive)
[14]
  GI50: > 100 µM (inactive)
[15]
  GI50: > 100 µM (inactive)
[16]
  GI50: > 100 µM (inactive)
[17]
  GI50: > 100 µM (inactive)
[18]
  GI50: > 100 µM (inactive)
[19]
  GI50: > 100 µM (inactive)
[20]
  GI50: > 100 µM (inactive)

## CCOC(=O)O/N=C1/C(=C2/C(=O)Nc3ccccc32)Nc2ccccc21
[1]
  GI50: 5.92 µM (inactive)
[2]
  GI50: 4.56 µM (inactive)
[3]
  GI50: 2.87 µM (inactive)
[4]
  GI50: 2.87 µM (inactive)
[5]
  GI50: 2.7 µM
[6]
  GI50: 4.95 µM (inactive)
[7]
  GI50: 12.2 µM (inactive)
[8]
  GI50: 4.8 µM (inactive)
[9]
  GI50: 10.3 µM (inactive)
[10]
  GI50: 4.48 µM (inactive)
[11]
  GI50: 3.13 µM (inactive)
[12]
  GI50: 5.83 µM (inactive)
[13]
  GI50: 1.24 µM (inactive)
[14]
  GI50: 5.73 µM (inactive)
[15]
  GI50: 8.73 µM (inactive)
[16]
  GI50: 2.37 µM (inactive)
[17]
  GI50: 1.59 µM (inactive)
[18]
  GI50: 5.35 µM (inactive)
[19]
  GI50: 10.2 µM (inactive)
[20]
  GI50: 8.32 µM (inactive)

## CC1=C(C)C2(C#N)C(=O)N3C(=NC(c4ccccc4)NC3c3ccccc3)C2(C#N)C(c2ccccc2)N1 (stereo not given)
[1]
  GI50: > 100 µM (inactive)
[2]
  GI50: > 100 µM (inactive)
[3]
  GI50: > 100 µM (inactive)
[4]
  GI50: > 100 µM (inactive)
[5]
  GI50: > 100 µM
[6]
  GI50: > 100 µM (inactive)
[7]
  GI50: > 100 µM (inactive)
[8]
  GI50: > 100 µM (inactive)
[9]
  GI50: > 100 µM (inactive)
[10]
  GI50: > 100 µM (inactive)
[11]
  GI50: > 100 µM (inactive)
[12]
  GI50: > 100 µM (inactive)
[13]
  GI50: > 100 µM (inactive)
[14]
  GI50: > 100 µM (inactive)
[15]
  GI50: > 100 µM (inactive)
[16]
  GI50: > 100 µM (inactive)
[17]
  GI50: > 100 µM (inactive)
[18]
  GI50: > 100 µM (inactive)
[19]
  GI50: > 100 µM (inactive)
[20]
  GI50: > 100 µM (inactive)

## COC(=O)CC1C=CC(C)(OC)OO1 (stereo not given)
[1]
  GI50: > 100 µM (inactive)
[2]
  GI50: 26 µM (inactive)
[3]
  GI50: 15.7 µM (inactive)
[4]
  GI50: > 100 µM (inactive)
[5]
  GI50: 39.4 µM
[6]
  GI50: 21 µM (inactive)
[7]
  GI50: 19.7 µM (inactive)
[8]
  GI50: 48.3 µM (inactive)
[9]
  GI50: > 100 µM (inactive)
[10]
  GI50: > 100 µM (inactive)
[11]
  GI50: 4.84 µM (inactive)
[12]
  GI50: > 100 µM (inactive)
[13]
  GI50: 51.1 µM (inactive)
[14]
  GI50: > 100 µM (inactive)
[15]
  GI50: > 100 µM (inactive)
[16]
  GI50: > 100 µM (inactive)
[17]
  GI50: > 100 µM (inactive)
[18]
  GI50: > 100 µM (inactive)
[19]
  GI50: > 100 µM (inactive)
[20]
  GI50: 49.9 µM (inactive)
